One assay deals with MDA-MB-231. As to the kind of experiment: Cytotoxicity against human MDA-MB-231 cells assessed as reduction in cell viability by MTT assay. In kind it is functional, cell-based. For orientation: Formazan colour is commonly taken as a measure of viable cells.
Assay [1] concerns HCT-116. Nature of the assay: Cytotoxicity against human HCT-116 cells assessed as reduction in cell viability by MTT assay. The class given is functional, cell-based.
The next assay relates to A549. As to the kind of experiment: Cytotoxicity against human A549 cells assessed as reduction in cell viability by MTT assay. The class given is functional, cell-based.
Assay [2] relates to HCT-116. Nature of the assay: Induction of apoptosis in human HCT-116 cells assessed as early apoptotic cells at 4 uM after 24 hrs by Annexin V-FITC/propidium iodide staining based flow cytometric analysis (reference value: 5.3%). The class given is functional. On the technique in general: Flow cytometry measures light scatter and fluorescence of single cells or particles in a stream.

The subject of assay [3] is HCT-116. As to the kind of experiment: Induction of apoptosis in human HCT-116 cells assessed as viable cells at 8 uM after 24 hrs by Annexin V-FITC/propidium iodide staining based flow cytometric analysis (reference value: 87.8%). The class given is functional. Particulars: read-out: Activity.
The test system of assay [4] is HCT-116. Nature of the assay: Induction of apoptosis in human HCT-116 cells assessed as late apoptotic cells at 16 uM after 24 hrs by Annexin V-FITC/propidium iodide staining based flow cytometric analysis (reference value: 6.5%). In kind it is functional.
Assay [5] deals with HCT-116. Nature of the assay: Induction of apoptosis in human HCT-116 cells assessed as necrotic cells at 8 uM after 24 hrs by Annexin V-FITC/propidium iodide staining based flow cytometric analysis (reference value: 0.4%). In kind it is functional.
Assay [6] relates to HCT-116. Nature of the assay: Induction of apoptosis in human HCT-116 cells assessed as viable cells at 4 uM after 24 hrs by Annexin V-FITC/propidium iodide staining based flow cytometric analysis (reference value: 87.8%). The class given is functional. Particulars: read-out: Activity.
Assay [7] has as its system HCT-116. As to the kind of experiment: Induction of apoptosis in human HCT-116 cells assessed as increase in cleaved-caspace-7 protein expression after 24 hrs by Western blot analysis. The class given is functional, cell-based. Particulars: dose microM 4-16, time 24.0 hrs. (In general: In western blotting, separated proteins are transferred to a membrane and probed.)
The test system of assay [8] is HCT-116. As to the kind of experiment: Induction of apoptosis in human HCT-116 cells assessed as late apoptotic cells at 8 uM after 24 hrs by Annexin V-FITC/propidium iodide staining based flow cytometric analysis (reference value: 6.5%). The class given is functional.
Assay [9] deals with HCT-116. As to the kind of experiment: Induction of apoptosis in human HCT-116 cells assessed as early apoptotic cells at 8 uM after 24 hrs by Annexin V-FITC/propidium iodide staining based flow cytometric analysis (reference value: 5.3%). The class given is functional.
Assay [10] concerns HCT-116. As to the kind of experiment: Induction of apoptosis in human HCT-116 cells assessed as apoptotic cells after 24 hrs by Annexin V-FITC/propidium iodide staining based flow cytometric analysis. Particulars: dose microM 4-16, time 24.0 hrs. In kind it is functional, cell-based.
The test system of assay [11] is HCT-116. As to the kind of experiment: Induction of apoptosis in human HCT-116 cells assessed as viable cells at 16 uM after 24 hrs by Annexin V-FITC/propidium iodide staining based flow cytometric analysis (reference value: 87.8%). Conditions: read-out: Activity. In kind it is functional.
For assay [12], the system named is HCT-116. Nature of the assay: Induction of apoptosis in human HCT-116 cells assessed as early apoptotic cells at 16 uM after 24 hrs by Annexin V-FITC/propidium iodide staining based flow cytometric analysis (reference value: 5.3%). In kind it is functional.
Assay [13] relates to HCT-116. Nature of the assay: Induction of apoptosis in human HCT-116 cells assessed as late apoptotic cells at 4 uM after 24 hrs by Annexin V-FITC/propidium iodide staining based flow cytometric analysis (reference value: 6.5%). In kind it is functional.
The test system of assay [14] is HCT-116. Nature of the assay: Induction of apoptosis in human HCT-116 cells assessed as necrotic cells at 4 uM after 24 hrs by Annexin V-FITC/propidium iodide staining based flow cytometric analysis (reference value: 0.4%). In kind it is functional.
Assay [15] concerns HCT-116. Nature of the assay: Induction of apoptosis in human HCT-116 cells assessed as increase in cleaved-PARP protein expression after 24 hrs by Western blot analysis. Particulars: dose microM 4-16, time 24.0 hrs. In kind it is functional, cell-based.
The test system of assay [16] is HCT-116. As to the kind of experiment: Induction of apoptosis in human HCT-116 cells assessed as increase in cleaved-caspace-3 protein expression after 24 hrs by Western blot analysis. The class given is functional, cell-based. Particulars: dose microM 4-16, time 24.0 hrs.
In assay [17] the test system is HCT-116. As to the kind of experiment: Induction of apoptosis in human HCT-116 cells assessed as necrotic cells at 16 uM after 24 hrs by Annexin V-FITC/propidium iodide staining based flow cytometric analysis (reference value: 0.4%). The class given is functional.

SMILES strings stand for the structures.

By IC50 is commonly meant the concentration that inhibits the measured activity by half. Consider `C=C1C(=O)O[C@@H]2[C@@H](OC(=O)[C@@H](C)CC)[C@@](C)(O)C[C@H]3C[C@@H](C)[C@@](O)(C[C@@H]12)O3`, for which the IC50 in the assay with MDA-MB-231 was determined as 23.7 µM; with HCT-116 [1] it was 14 µM; in the assay on A549, 24.3 µM.
The matching figures for `C=C1C(=O)O[C@@H]2[C@@H](OC(=O)CC(C)C)[C@@](C)(O)C[C@H]3C[C@@H](C)[C@@](O)(C[C@@H]12)O3`: 27.9 µM, 17.2 µM and 24.5 µM.
The matching figures for `C=C1C(=O)O[C@@H]2[C@@H](OC(=O)[C@H](C)CC)[C@@](C)(O)C[C@H]3C[C@@H](C)[C@@](O)(C[C@@H]12)O3`: 48.9 µM, 21.4 µM and 37.6 µM.
For `C=C1C(=O)O[C@@H]2[C@@H](OC(=O)[C@@H](C)CC)[C@@](C)(O)CCC[C@@H](C)C(=O)C[C@@H]12`, the IC50 in the assay with MDA-MB-231 was 14.6 µM; in the assay on HCT-116 [1] it was 6.7 µM; with A549, 31.9 µM.
For `C=C1C(=O)O[C@@H]2[C@@H](OC(=O)[C@H](C)CC)[C@@](C)(O)CCC[C@@H](C)C(=O)C[C@@H]12`, in that order: 10.6 µM, 5.3 µM and 24.7 µM.
On to `C=C1C(=O)O[C@@H]2[C@@H](OC(=O)C(C)C)[C@@](C)(O)C[C@H]3C[C@@H](C)[C@@](O)(C[C@@H]12)O3`, for which the IC50 in the assay with MDA-MB-231 is greater than 50 µM; in the assay on HCT-116 [1], 20.2 µM; in the assay with A549 it was greater than 50 µM.
For `C=C1C(=O)O[C@@H]2[C@@H](OC(=O)/C(C)=C\C)[C@@](C)(O)CCC[C@@H](C)C(=O)C[C@@H]12`, the values for the IC50 with MDA-MB-231, in the assay on HCT-116 [1] and with A549 were 4.7 µM, 3.2 µM and 14.1 µM, respectively.
As to `C=C1C(=O)O[C@@H]2[C@@H](OC(=O)/C(C)=C\C)[C@@](C)(O)C[C@H]3C[C@@H](C)[C@@](O)(C[C@@H]12)O3`, the IC50 in the assay on MDA-MB-231 was determined as 23.4 µM; in the assay on HCT-116 [1], 17.8 µM; in the assay on A549, 17.3 µM.
For `C=C1C(=O)O[C@@H]2[C@@H](OC(=O)C(C)C)[C@@](C)(O)CCC[C@@H](C)C(=O)C[C@@H]12`, in that order: 11.6 µM, 8.5 µM and 26.6 µM.
In the case of `C=C1C(=O)O[C@@H]2[C@@H](OC(=O)CC(C)C)[C@@](C)(O)CCC[C@@H](C)C(=O)C[C@@H]12`, the Activity was 5.2% in the assay on HCT-116 [2]; 15% with HCT-116 [4]; 0.6% in the assay on HCT-116 [5]; “Dose-dependent effect” in the assay with HCT-116 [7]; 8.3% with HCT-116 [8]; 7.3% with HCT-116 [9]. Moreover, the Activity result with HCT-116 [10] was “Dose-dependent effect”; in the assay with HCT-116 [12], 10.5%; in the assay on HCT-116 [13] it was 7.3%; with HCT-116 [14], 0.4%; with HCT-116 [15], “Dose-dependent effect”; with HCT-116 [16], “Dose-dependent effect”. Moreover, the Activity in the assay on HCT-116 [17] came out at 0.6%. Also, the viability at 8 µM in the assay on HCT-116 [3] was determined as 83.8%. In addition, the viability at 4 µM with HCT-116 [6] came to 87.1%. For the same compound, in the assay on HCT-116 [11], the viability at 16 µM was 73.9%. The IC50 in the assay on MDA-MB-231 amounted to 6.1 µM; with HCT-116 [1], 3.7 µM; with A549, 8.4 µM.

The record behind these values is ChEMBL document CHEMBL4699561, “Cytotoxic Germacranolides from the Whole Plant of Carpesium minus” (J Nat Prod, 2020).
